In patent US20140050779A1, “[…]-2 INHIBITORS AND USES THEREOF” (SINGAPORE HEALTH SERVICES PTE. LTD., priority 2011, published 2014):

Legend:
TG-2 [1] = test: TG-2 colorimetric microassay (transamidase activity) in lysate of treated mouse scleral fibroblasts; format: cell-based; details: for transamidase activity of endogenous cellular TG-2: mouse scleral fibroblasts, 0.1, 1, 10 and 100 μM for 5 days, concentration-dependent
Procedure: (§1) All cells used in examples described herein were between passages 2-4. Passaged cells were plated at a concentration of 2×10^5/mL into 6 well plates containing DMEM with 10% FBS. […] Old media was removed from wells and 1 mL of drug was added with fresh full medium and incubated at 37° C. Fresh drugs were replaced daily consecutively for the next 5 days to avoid oxidation. The drugs/media was removed and wells were washed twice with 1×PBS. 200 μl of RIPA lysis buffer was added per well and incubated for 5 minutes and cells were scrapped into an eppendorf tube. The cells were stored at −20° C. until sonication. The cells were sonicated on ice thrice at 20% output power for 5 seconds each time and rested 1 minute in between each turn. Cell debris was spun down at 12000 rpm for 20 minutes. The supernatant was poured into a new eppendorf tube and cell concentrations were determined using the Dc Protein assay Kit (Bio-Rad, MA). Passaged cells were plated at a concentration of 1×10^5 into 6 well plates containing DMEM with 10% FBS. […] Freshly prepared muscarinic agents' at base line, 0.1, 1, 10 and 100 μM concentrations were added for 5 days (Table 2). The culture medium was removed and fresh medium containing the same muscarinic drug added every day to avoid drug changes such as atropine oxidation. Cell lysate was collected for relative quantitative (q) PCR and protein analysis at day 5.
(§2) This assay was designed to assess the cross-linking activity of TG-2 between two proteins. TG activity was measured with TG-2 colorimetric Microassay kit (TG-Covtest, Covalab, Cambridge, UK). 150-200 μg of total protein was used per well for the TG-2 assay. Transglutaminase standards (Sigma) were used as a positive control. EDTA was used to inhibit the enzyme activity as a negative control.
(§3) The approximate volume of reagents to use, the wavelengths to use to read absorbance, the incubation times were determined from a previous study that have carried out experiments with similar principles as described in Perez Alea M, Kitamura M, Martin G, Thomas V, Hitomi K, El Alaoui S., “Development of an isoenzyme-specific colorimetric assay for tissue transglutaminase 2 cross-linking activity”, Anal Biochem. 2009 Jun. 15; 389(2):150-6, Epub 2009 March 24. All reagents used and protein coated plates were part of the kit. Biotin cadaverine was reconstituted with 6 ml of deionized water and 90 μl was added into each well of the 96 well plate that comes coated with CBZ-GLN-GLY. The rest of the steps were followed as in the manufacturer's instructions and finally absorbance was read at 450 nm using a microplate reader (TECAN, Austria). All incubations were performed with gentle shaking on a laboratory orbital shaker.
(§4) The TG-2 colorimetric assay serves as a high throughput and quantitative assay to assess transamidase activity. […] In vivo studies with these drugs were also conducted to determine the effect on myopia development (see FIGS. 14 and 15).

TG-2 [2] = test: Western blot of TG proteins in mouse scleral fibroblasts after muscarinic agents; format: cell-based; details: very low concentrations
Procedure: (§5) All cells used in examples described herein were between passages 2-4. Passaged cells were plated at a concentration of 2×10^5/mL into 6 well plates containing DMEM with 10% FBS. The cells were seen to attach to the bottom of the culture wells after 4 hours. Old media was removed from wells and 1 mL of drug was added with fresh full medium and incubated at 37° C. Fresh drugs were replaced daily consecutively for the next 5 days to avoid oxidation. The drugs/media was removed and wells were washed twice with 1×PBS. 200 μl of RIPA lysis buffer was added per well and incubated for 5 minutes and cells were scrapped into an eppendorf tube. The cells were stored at −20° C. until sonication. The cells were sonicated on ice thrice at 20% output power for 5 seconds each time and rested 1 minute in between each turn. Cell debris was spun down at 12000 rpm for 20 minutes. The supernatant was poured into a new eppendorf tube and cell concentrations were determined using the Dc Protein assay Kit (Bio-Rad, MA). Passaged cells were plated at a concentration of 1×10^5 into 6 well plates containing DMEM with 10% FBS. The cells were seen to attach to the bottom of the culture wells after 4 hours. Freshly prepared muscarinic agents' at base line, 0.1, 1, 10 and 100 μM concentrations were added for 5 days (Table 2). The culture medium was removed and fresh medium containing the same muscarinic drug added every day to avoid drug changes such as atropine oxidation. Cell lysate was collected for relative quantitative (q) PCR and protein analysis at day 5.
(§6) The cells were lysed by sonification in 1×RIPA lysis buffer (santa cruz biotechnology, Sc-24948) with 10 μl PMSF solution, 10 μl sodium orthovanadate solution and 20 μl protease inhibitor cocktail solution. After centrifugation at 20,000×g at 4° C. for 20 minutes, and the supernatant collected. The protein content in the supernatants was measured using the DC Protein Assay kit (Bio-Rad, MA) following the manufacturer's instructions. Samples were stored at −80° C. until assayed.
(§7) The mouse and human scleral fibroblasts were treated with atropine or carbachol at 0.01, 0.1, 1, 5 and 10 μM concentrations for 5 days. Following 5 days of treatment, the total cellular protein was extracted from these cells and TG proteins detected via Western blot analysis.
Human and, mouse scleral fibroblast proteins in the supernatant were separated by SDS-PAGE, transferred to nitrocellulose membranes, blocked in 5% BSA in TBST (10 mM Tris-HCl [pH 8.0], 150 mM NaCl, and […] Tween-20) for 2 hours at room temperature, and incubated with the same anti-TG-2 antibody described herein at a dilution of 1:1000 and anti β-tubulin antibodies used as a positive control, for 1 hour at room temperature. The membranes were washed 3 times in TBST and incubated with HRP-conjugated secondary antibody (Chemicon International) at a dilution of 1:2500 for 1 hour at room temperature. Immunoreactive bands were visualized using the enhanced chemiluminescence method (GE Healthcare, Buckinghamshire, UK). The membrane was wrapped in plastic and placed against an X-ray film to expose for an appropriate length of time (30 seconds-5 minutes).

TG-2 [3] = test: TG-2 colorimetric microassay (transamidase activity) in lysate of treated human scleral fibroblasts; format: cell-based; details: for transamidase activity of endogenous cellular TG-2: human scleral fibroblasts, 0.1, 1, 10 and 100 μM for 5 days, concentration-dependent
Procedure: as §1, §2, §3, §4

[4] = system: mouse eyes treated with −15D spectacle lens; test: spectacle lens-induced myopia in mice, axial length and refractive error; format: in vivo; details: lens with 0.1% drug; for axial length: 2 weeks and 4 weeks, vs lens treated eyes; for refractive error: infrared photorefractor
Procedure: Topical applications were administered to both eyes at the same time each day (approximately 9:00 AM) commencing on the 12th day (initiation of spectacle lens treatment). A compatible drug level was determined prior to the in vivo use in a tissue culture study with mouse scleral fibroblasts. […] This treatment schedule continued for four weeks starting on post-natal day 12 continued until post-natal day 42. All measurements were taken at post-natal day 42, the equivalent of 4 weeks of spectacle lens wear.
Each eye was refracted every week to measure the refractive error using automated infrared photorefraction as described in Barathi, V. A., Beuerman, R. W., Schaeffel, F., 2009a, “Effects of unilateral topical atropine on binocular pupil responses and eye growth in mice”, Vision Res 49, 383-387. By using Optical Low Coherence Interferometry (OLCI, AC Master, Carl-Zeiss), the axial length of the eye was measured in-vivo as described in Yin G C, Gentle A, McBrien N A, “Muscarinic antagonist control of myopia: a molecular search for the M1 receptor in chick”, Mol. Vis. 2004; 13(10):787-93 and Barathi, V. A., Boopathi, V. G., Yap, E. P., Beuerman, R. W., 2008, “Two models of experimental myopia in the mouse”, Vision Res 48, 904-916. […] Differences of refractive power and axial length between eyes were calculated. Independent t-tests were used to compare experimental and control eyes in wild type and TGM2-deleted or M1-M5 mutant mice.
Right eyes were experimental and left eyes served as contra-lateral control. In vivo axial length was measured at 2 weeks and 4 weeks after treatment. […] Automated infrared photorefractor was used to measure the refractive error measurements.

TG-2 [5] = test: Western blot of TG proteins in human scleral fibroblasts after muscarinic agents; format: cell-based; details: very low concentrations
Procedure: as §5, §6, §7
Human and, mouse scleral fibroblast proteins in the supernatant were separated by SDS-PAGE, transferred to nitrocellulose membranes, blocked in 5% BSA in TBST (10 mM Tris-HCl [pH 8.0], 150 mM NaCl, and […] Tween-20) for 2 hours at room temperature, and incubated with the same anti-TG-2 antibody described herein at a dilution of 1:1000 and anti β-tubulin antibodies used as a positive control, for 1 hour at room temperature. […]

cultured SF cells = test: effect of TG-2 inhibitors on cultured scleral fibroblast growth (XCELLigence); format: cell-based; details: for SF cell growth and cell numbers: 0.1 μM, 5 days; for SF cell growth and cell numbers at higher concentrations: above 0.1 μM, concentration dependent manner
Procedure: To test the effect of TG-2 inhibitors on cultured scleral fibroblast growth, cultured SF cells at passage 4 were treated with TG-2 inhibitors at baseline, 0.1, 1, 10 and 100 μM for 5 days. The SF cell growth was monitored by XCELLigence cell impedance.

Compound	transamidase activity of endogenous cellular TG-2 (TG-2 [1])	TG-2 protein level (reduction) (TG-2 [2])	transamidase activity of endogenous cellular TG-2 (TG-2 [3])	axial length [4]	refractive error [4]	TG-2 protein level (reduction) (TG-2 [5])	SF cell growth and cell numbers (cultured SF cells)	SF cell growth and cell numbers at higher concentrations (cultured SF cells)	further results
C[N+]1(C)CCC(OC(=O)C(c2ccccc2)c2ccccc2)CC1.[I-] [4-DAMP, 1,1-Dimethyl-4-diphenylacetoxypiperidinium iodide]	reduced	significant	reduced	significantly reduced	shifted from myopic to hyperoic	significant	–	–	–
CCN(CC)CC1CCCCN1CC(=O)N1c2ccccc2C(=O)Nc2cccnc21 (stereo not shown) [AFDX-116]	reduced	–	reduced	–	–	–	–	–	–
CC(=O)CSc1n(C)cc[n+]1C.[Cl-] [D003]	–	–	–	–	–	–	significantly reduced	further reduced	cell morphology (cultured SF cells): No change
NC(=O)C(c1ccccc1)(c1ccccc1)[C@@H]1CCN(CCc2ccc3c(c2)CCO3)C1 [darifenacin]	reduced	significant	reduced	significantly reduced	shifted from myopic to hyperoic	significant	–	–	TG-2 activity, strongest reduction among the antagonists (TG-2 [1]; mouse scleral fibroblasts, low concentrations): most significantly reduced; TG-2 activity, strongest reduction among the antagonists (TG-2 [3]; human scleral fibroblasts, all concentrations): most significantly reduced; TG-2 activity, strongest reduction among the antagonists (TG-2 [3]; human scleral fibroblasts, low concentrations): most significantly reduced; TG-2 activity as compared to atropine (TG-2 [3]; human scleral fibroblasts, himbacine 0.1, 1, 10 & 100 μM, darifenacin 0.1, 1 & 10 μM): more significantly reduced
CN1CCN(CC(=O)N2c3ccccc3C(=O)Nc3cccnc32)CC1 [pirenzepine]	reduced	–	reduced	–	–	–	–	–	–
TAMRA-DON [R002]	–	–	–	–	–	–	significantly reduced	further reduced	–
